From article PMC12935787, “Clinical pharmacokinetics and pharmacometabolomics of Andrographis paniculata capsules: Bridging drug disposition and metabolic response to precision medicine” (Naunyn-Schmiedeberg's Archives of Pharmacology, 2025)
Like-named read-outs stand apart in the source and are kept apart here.

Assay: Clinical pharmacokinetics, plasma LC-MS/MS after single oral dose of AP capsules
Assay type: in vivo, human (healthy volunteers)
Conditions: for concentration at 5 h / concentration at 6 h / concentration at 8 h / concentration at 10 h / concentration at 12 h / concentration at 24 h / concentration at 0 h / concentration at 0.5 h / concentration at 1 h / concentration at 1.5 h / concentration at 2 h / concentration at 2.5 h / concentration at 3 h / concentration at 3.5 h / concentration at 4 h: oral, 2000 mg; for concentration at 5 h / concentration at 6 h / concentration at 8 h / concentration at 10 h / concentration at 12 h / concentration at 24 h / concentration at 0 h / concentration at 0.5 h / concentration at 1 h / concentration at 1.5 h / concentration at 2 h / concentration at 2.5 h / concentration at 3 h / concentration at 3.5 h / concentration at 4 h / Mean concentration: 2000 mg AP capsules
Description: The protocol was published (Tee et al. [2022]).
Seven calibrators ranging from 1, 2, 5,10, 20, 50, and 100 ng mL^−1 were prepared. Frozen plasma was thawed, vortexed-mixes, and processed via protein precipitation: 50 µL plasma plus 100 µL 0.01% ammonia in methanol were vortexed (20 s), centrifuged (14800 rpm, 5 min) and […] supernatant was transferred to 2 mL vials with inserts. LC–MS/MS injection volume: 10 µL. The separation used a Phenomenex Gemini-NX C18 column (150 × 2.1 mm, 5 μm) with 0.01% ammonia (A) and acetonitrile/methanol (1:1, B) as mobile phases (0.30 mL min^-1). The gradient program: 40% B (0 min), linear increase to 95% B (3 min), hold to 5 min, sharp decrease to 10% B (5.01 min), hold to 7 min, return to 40% B (7.01 min), and re-equilibration to 10 min. Mass detection employed an LCMS-8060NX triple quadrupole with heated ESI in negative mode, monitoring specific MRM transitions: andrographolide (349.3 → 331.2/287.1), 14-deoxyandrographolide (331.2 → 108.0/301.1), and neoandrographolide (479.1 → 317.4/161.1).
Pharmacokinetic parameters were determined from plasma samples (5 subjects, 15 time points) analyzed via LC–MS/MS (Shimadzu 8060NX). […] Specific MRM transitions for andrographolide, 14-deoxyandrographolide, and neoandrographolide in plasma samples of subjects are illustrated in Figure S3. […] The dose-dependent concentration–time curves, pharmacokinetics profiles (Fig. 2a, b and c) and comprehensive individual PK data (Table S4) provide a foundation for developing personalized AP dosing regimens, supporting its precision medicine potential.

[1] = human, plasma, 2000 mg AP capsules oral, fasting, n=5

SMILES: C=C1CC[C@@H]2[C@](C)(CO)[C@H](O)CC[C@@]2(C)[C@@H]1C/C=C1/C(=O)OC[C@H]1O [andrographolide]
- concentration at 5 h (human, plasma, S4, 5.00 h, read-out: Plasma concentration): 0 ng/mL
- concentration at 6 h (human, plasma, S4, 6.00 h, read-out: Plasma concentration): 0 ng/mL
- concentration at 8 h (human, plasma, S4, 8.00 h, read-out: Plasma concentration): 0 ng/mL
- concentration at 10 h (human, plasma, S4, 10.00 h, read-out: Plasma concentration): 0 ng/mL
- concentration at 12 h (human, plasma, S4, 12.00 h, read-out: Plasma concentration): 0 ng/mL
- concentration at 24 h (human, plasma, S4, 24.00 h, read-out: Plasma concentration): 0 ng/mL
- concentration at 0 h (human, plasma, S5, 0.00 h, read-out: Plasma concentration): 0 ng/mL
- concentration at 0.5 h (human, plasma, S5, 0.50 h, read-out: Plasma concentration): 0 ng/mL
- concentration at 1 h (human, plasma, S5, 1.00 h, read-out: Plasma concentration): 0 ng/mL
- concentration at 1.5 h (human, plasma, S5, 1.50 h, read-out: Plasma concentration): 2.52 ng/mL
- concentration at 2 h (human, plasma, S5, 2.00 h, read-out: Plasma concentration): 3.77 ng/mL
- concentration at 2.5 h (human, plasma, S5, 2.50 h, read-out: Plasma concentration): 3.17 ng/mL
- concentration at 3 h (human, plasma, S5, 3.00 h, read-out: Plasma concentration): 2.38 ng/mL
- concentration at 3.5 h (human, plasma, S5, 3.50 h, read-out: Plasma concentration): 1.59 ng/mL
- concentration at 4 h (human, plasma, S5, 4.00 h, read-out: Plasma concentration): 0.54 ng/mL
- concentration at 5 h (human, plasma, S5, 5.00 h, read-out: Plasma concentration): 1.62 ng/mL
- concentration at 6 h (human, plasma, S5, 6.00 h, read-out: Plasma concentration): 1.12 ng/mL
- concentration at 8 h (human, plasma, S5, 8.00 h, read-out: Plasma concentration): 0 ng/mL
- concentration at 10 h (human, plasma, S5, 10.00 h, read-out: Plasma concentration): 0 ng/mL
- concentration at 12 h (human, plasma, S5, 12.00 h, read-out: Plasma concentration): 0 ng/mL
- concentration at 24 h (human, plasma, S5, 24.00 h, read-out: Plasma concentration): 0 ng/mL
- concentration at 0 h (human, plasma, mean n=5, 0.00 h, read-out: Mean concentration): 0 ng/mL
- concentration at 0.5 h (human, plasma, mean n=5, 0.50 h, read-out: Mean concentration): 8.62 ng/mL
- concentration at 1 h (human, plasma, mean n=5, 1.00 h, read-out: Mean concentration): 7.7 ng/mL
- concentration at 1.5 h (human, plasma, mean n=5, 1.50 h, read-out: Mean concentration): 10.2 ng/mL
- concentration at 2 h (human, plasma, mean n=5, 2.00 h, read-out: Mean concentration): 6.21 ng/mL
- concentration at 2.5 h (human, plasma, mean n=5, 2.50 h, read-out: Mean concentration): 3.4 ng/mL
- concentration at 3 h (human, plasma, mean n=5, 3.00 h, read-out: Mean concentration): 3.02 ng/mL
- concentration at 3.5 h (human, plasma, mean n=5, 3.50 h, read-out: Mean concentration): 1.3 ng/mL
- concentration at 4 h (human, plasma, mean n=5, 4.00 h, read-out: Mean concentration): 0.11 ng/mL
- concentration at 5 h (human, plasma, mean n=5, 5.00 h, read-out: Mean concentration): 0.32 ng/mL
- concentration at 6 h (human, plasma, mean n=5, 6.00 h, read-out: Mean concentration): 0.22 ng/mL
- concentration at 8 h (human, plasma, mean n=5, 8.00 h, read-out: Mean concentration): 0 ng/mL
- concentration at 10 h (human, plasma, mean n=5, 10.00 h, read-out: Mean concentration): 0 ng/mL
- concentration at 12 h (human, plasma, mean n=5, 12.00 h, read-out: Mean concentration): 0 ng/mL
- concentration at 24 h (human, plasma, mean n=5, 24.00 h, read-out: Mean concentration): 0 ng/mL
- AUC(0-inf) [1]: 20.9 ng·h/mL
- AUC(0-t) [1]: 20.7 ng·h/mL
- Cmax [1]: 10.2 ng/mL
- Tmax [1]: 1.5 h
- half-life [1]: 0.72 h
- Mean concentration (mean n=5, 0.00 h): 0 ng/mL
- Mean concentration (mean n=5, 0.50 h): 8.622 ng/mL
- Mean concentration (mean n=5, 1.00 h): 7.6996 ng/mL
- Mean concentration (mean n=5, 1.50 h): 10.145 ng/mL
- Mean concentration (mean n=5, 2.00 h): 6.2104 ng/mL
- Mean concentration (mean n=5, 2.50 h): 3.3999 ng/mL
- Mean concentration (mean n=5, 3.00 h): 3.0233 ng/mL
- Mean concentration (mean n=5, 3.50 h): 1.2987 ng/mL
- Mean concentration (mean n=5, 4.00 h): 0.1073 ng/mL
- Mean concentration (mean n=5, 5.00 h): 0.3249 ng/mL
- Mean concentration (mean n=5, 6.00 h): 0.2247 ng/mL
- Mean concentration (mean n=5, 8.00 h): 0 ng/mL
- Mean concentration (mean n=5, 10.00 h): 0 ng/mL
- Mean concentration (mean n=5, 12.00 h): 0 ng/mL
- Mean concentration (mean n=5, 24.00 h): 0 ng/mL
